Assay results taken from the supplement of paper PMC8617591.

How the values were obtained:
[1] = test system: Mycobacterium tuberculosis Erdman (autoluminescent); experiment: GRinf, maximum normalised growth rate inhibition (three-drug combination) (unitless (-1 to 1)); higher = less effect (negative = killing)
Protocol: (§1)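 DiaMOND equipotent three-drug combination dose responses (10 doses, 1.5- or 2-fold spacing, centred on IC90) against autoluminescent M. tuberculosis Erdman in 8 in vitro models. Read-out is OD600, or luminescence for the intracellular and dormancy models, normalised to untreated wells. Hill-fit Einf, AUC25 and GRinf are potency metrics; FIC50 and FIC90 are total Loewe fractional inhibitory concentrations as log2 (negative = synergy).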

[2] = test system: Mycobacterium tuberculosis Erdman (autoluminescent); experiment: total FIC90 (Loewe) at 90% inhibition, three-drug combination (log2); higher = more antagonistic
Protocol: as §1

[3] = test system: Mycobacterium tuberculosis Erdman (autoluminescent); experiment: total FIC50 (Loewe) at 50% inhibition, three-drug combination (log2); higher = more antagonistic
Protocol: as §1

[4] = test system: Mycobacterium tuberculosis Erdman (autoluminescent); experiment: AUC25, normalised area under dose response up to IC25 (three-drug combination) (fraction (0-1)); higher = more potent at low dose
Protocol: as §1

[5] = test system: Mycobacterium tuberculosis Erdman (autoluminescent); experiment: Einf, fitted maximum growth inhibition of three-drug combination (fraction); higher = stronger maximal inhibition
Protocol: as §1

COc1c(N2C[C@@H]3CCCN[C@@H]3C2)c(F)cc2c(=O)c(C(=O)O)cn(C3CC3)c12 [moxifloxacin] + CO[C@H]1/C=C/O[C@@]2(C)Oc3c(C)c(O)c4c(O)c(c(/C=N/N5CCN(C6CCCC6)CC5)c(O)c4c3C2=O)NC(=O)/C(C)=C\C=C\[C@H](C)[C@H](O)[C@@H](C)[C@@H](O)[C@@H](C)[C@H](OC(C)=O)[C@@H]1C [rifapentine] + CO[C@H]1/C=C/O[C@@]2(C)Oc3c(C)c(O)c4c(O)c(c(/C=N/N5CCN(C)CC5)c(O)c4c3C2=O)NC(=O)/C(C)=C\C=C\[C@H](C)[C@H](O)[C@@H](C)[C@@H](O)[C@@H](C)[C@H](OC(C)=O)[C@@H]1C [rifampicin]
Conditions | AUC25, [4] | Einf, [5] | GRinf, [1] | total FIC50, [3] | total FIC90, [2]
in vitro model: acidic pH 5.7, time point: constant (~7 days, model-specific) | 0.0724 | 0.838 | 0.0128 | 0.153 | –
in vitro model: acidic pH 5.7, time point: terminal (~4-5 doublings, model-specific) | 0.0677 | 0.973 | -0.122 | 0.25 | 0.137
in vitro model: intracellular J774, time point: constant = terminal | – | 0.952 | -0.11 | – | 1.1

Conditions | AUC25, [4] | Einf, [5] | GRinf, [1] | total FIC50, [3] | total FIC90, [2]
in vitro model: butyrate, time point: constant (~7 days, model-specific) | 0.102 | 0.883 | 0.109 | 0.138 | 2.35
in vitro model: butyrate, time point: terminal (~4-5 doublings, model-specific) | 0.0922 | 0.952 | 0.0591 | 0.217 | 0.559
in vitro model: cholesterol 0.05 mM, time point: constant (~7 days, model-specific) | 0.101 | 0.593 | 0.0182 | 0.609 | –
in vitro model: cholesterol 0.05 mM, time point: terminal (~4-5 doublings, model-specific) | 0.0956 | 0.891 | -0.0633 | 0.426 | 1.76
in vitro model: cholesterol-high 0.2 mM, time point: constant (~7 days, model-specific) | 0.0581 | 0.825 | -0.0146 | 0.356 | –
in vitro model: cholesterol-high 0.2 mM, time point: terminal (~4-5 doublings, model-specific) | 0.0631 | 1 | -0.758 | 0.707 | 0.468
in vitro model: dormancy (butyrate + nitrate, low O2), time point: constant (~7 days, model-specific) | 0.0643 | 0.868 | 0.252 | 0.441 | 0.199
in vitro model: dormancy (butyrate + nitrate, low O2), time point: terminal (~4-5 doublings, model-specific) | 0.0509 | 0.977 | -0.14 | 0.539 | 0.615
in vitro model: standard 7H9 glycerol, time point: constant = terminal | 0.0451 | 0.821 | 0.307 | 0.381 | –
in vitro model: valerate, time point: constant (~7 days, model-specific) | 0.0421 | 0.846 | 0.0605 | 0.542 | –
in vitro model: valerate, time point: terminal (~4-5 doublings, model-specific) | 0.0285 | 0.934 | 0.041 | 0.547 | 0.3

COc1c(N2C[C@@H]3CCCN[C@@H]3C2)c(F)cc2c(=O)c(C(=O)O)cn(C3CC3)c12 [moxifloxacin] + NC(=O)c1cnccn1 [pyrazinamide] + CO[C@H]1/C=C/O[C@@]2(C)Oc3c(C)c(O)c4c(O)c(c(/C=N/N5CCN(C6CCCC6)CC5)c(O)c4c3C2=O)NC(=O)/C(C)=C\C=C\[C@H](C)[C@H](O)[C@@H](C)[C@@H](O)[C@@H](C)[C@H](OC(C)=O)[C@@H]1C [rifapentine]
Conditions | AUC25, [4] | Einf, [5] | GRinf, [1] | total FIC50, [3] | total FIC90, [2]
in vitro model: acidic pH 5.7, time point: constant (~7 days, model-specific) | 0.0979 | 0.916 | -0.164 | 0.396 | –
in vitro model: acidic pH 5.7, time point: terminal (~4-5 doublings, model-specific) | 0.0717 | 0.996 | -0.192 | 0.991 | -0.209
in vitro model: intracellular J774, time point: constant = terminal | – | 0.968 | -0.65 | – | 0.713

Conditions | AUC25, [4] | Einf, [5] | GRinf, [1] | total FIC50, [3] | total FIC90, [2]
in vitro model: butyrate, time point: constant (~7 days, model-specific) | 0.118 | 0.907 | 0.0713 | 0.589 | 0.846
in vitro model: butyrate, time point: terminal (~4-5 doublings, model-specific) | 0.0899 | 0.961 | 0.0339 | 0.781 | 1.19
in vitro model: cholesterol 0.05 mM, time point: constant (~7 days, model-specific) | 0.116 | 0.617 | -0.407 | – | –
in vitro model: cholesterol 0.05 mM, time point: terminal (~4-5 doublings, model-specific) | 0.0984 | 0.913 | -0.171 | 1.31 | –
in vitro model: cholesterol-high 0.2 mM, time point: constant (~7 days, model-specific) | 0.0917 | 0.947 | -0.459 | 0.921 | –
in vitro model: cholesterol-high 0.2 mM, time point: terminal (~4-5 doublings, model-specific) | 0.0805 | 1 | -0.837 | 1.23 | 1.05
in vitro model: dormancy (butyrate + nitrate, low O2), time point: constant (~7 days, model-specific) | 0.0716 | 0.862 | 0.214 | 0.262 | 0.265
in vitro model: dormancy (butyrate + nitrate, low O2), time point: terminal (~4-5 doublings, model-specific) | 0.07 | 0.979 | -0.13 | 0.473 | 1.04
in vitro model: standard 7H9 glycerol, time point: constant = terminal | 0.0577 | 0.882 | 0.0649 | – | –
in vitro model: valerate, time point: constant (~7 days, model-specific) | 0.0789 | 0.81 | 0.162 | 0.849 | –
in vitro model: valerate, time point: terminal (~4-5 doublings, model-specific) | 0.0473 | 0.929 | 0.0611 | 0.778 | 0.693

COc1c(N2C[C@@H]3CCCN[C@@H]3C2)c(F)cc2c(=O)c(C(=O)O)cn(C3CC3)c12 [moxifloxacin] + NC(=O)c1cnccn1 [pyrazinamide] + CO[C@H]1/C=C/O[C@@]2(C)Oc3c(C)c(O)c4c(O)c(c(/C=N/N5CCN(C)CC5)c(O)c4c3C2=O)NC(=O)/C(C)=C\C=C\[C@H](C)[C@H](O)[C@@H](C)[C@@H](O)[C@@H](C)[C@H](OC(C)=O)[C@@H]1C [rifampicin]
Conditions | AUC25, [4] | Einf, [5] | GRinf, [1] | total FIC50, [3] | total FIC90, [2]
in vitro model: acidic pH 5.7, time point: constant (~7 days, model-specific) | 0.0731 | 0.851 | -0.155 | 0.177 | –
in vitro model: acidic pH 5.7, time point: terminal (~4-5 doublings, model-specific) | 0.0678 | 0.99 | -0.208 | 0.423 | -0.913
in vitro model: intracellular J774, time point: constant = terminal | – | 0.99 | -0.539 | – | 0.76

Conditions | AUC25, [4] | Einf, [5] | GRinf, [1] | total FIC50, [3] | total FIC90, [2]
in vitro model: butyrate, time point: constant (~7 days, model-specific) | 0.119 | 0.869 | 0.125 | 0.49 | 2.29
in vitro model: butyrate, time point: terminal (~4-5 doublings, model-specific) | 0.114 | 0.977 | -0.00285 | 0.525 | 1.3
in vitro model: cholesterol 0.05 mM, time point: constant (~7 days, model-specific) | 0.096 | 0.6 | 0.1 | – | –
in vitro model: cholesterol 0.05 mM, time point: terminal (~4-5 doublings, model-specific) | 0.0868 | 0.868 | -0.00841 | 1.23 | –
in vitro model: cholesterol-high 0.2 mM, time point: constant (~7 days, model-specific) | 0.0908 | 0.912 | -0.393 | 1.26 | –
in vitro model: cholesterol-high 0.2 mM, time point: terminal (~4-5 doublings, model-specific) | 0.0879 | 1 | -0.949 | 1.58 | 1.47
in vitro model: dormancy (butyrate + nitrate, low O2), time point: constant (~7 days, model-specific) | 0.0806 | 0.87 | 0.204 | 0.465 | -0.0278
in vitro model: dormancy (butyrate + nitrate, low O2), time point: terminal (~4-5 doublings, model-specific) | 0.0656 | 0.978 | -0.115 | 0.411 | 0.407
in vitro model: standard 7H9 glycerol, time point: constant = terminal | 0.0452 | 0.781 | 0.36 | – | –
in vitro model: valerate, time point: constant (~7 days, model-specific) | 0.0626 | 0.785 | 0.176 | 0.864 | –
in vitro model: valerate, time point: terminal (~4-5 doublings, model-specific) | 0.0319 | 0.909 | 0.127 | 0.853 | 0.657
